From patent US20250282796A1, “PENEM ANTIBACTERIALS AGAINST MYCOBACTERIAL PATHOGENS AND D,D- AND L,D TRANSPEPTIDASES” (The Johns Hopkins University, priority 2022, published 2025) come the findings set out here.

Values after ≈ are worked out from the molar mass of the structure shown. “Also recorded” adds a separate entry of the source. Where two headings read alike, the source gives them in different places.

The subject of one assay is Mtb H37Rv. Nature of the assay: MIC broth microdilution assay against Mtb H37Rv (with and without clavulanate). Type of assay: cell-based, Mycobacterium tuberculosis. Particulars: for increase of MIC relative to T405: Mtb H37Rv without clavulanate; for MIC: Mycobacterium tuberculosis, H37RV, 336 h, read-out: MIC Mtb H37Rv. A general note: In broth dilution the organism is exposed to a series of concentrations in liquid medium.

The test system of a further assay is Mab ATCC 19977. Nature of the assay: MIC broth microdilution assay against Mab ATCC 19977. To be noted: for MIC: Mycobacteroides abscessus, read-out: MIC Mab ATCC 19977. Type of assay: cell-based, Mycobacteroides abscessus.
The target in the next assay is T1, LdtMt2 (Mycobacterium tuberculosis, UniProt I6Y9J2).
T1 construct: made in house
T1 sequence (I6Y9J2 56-408): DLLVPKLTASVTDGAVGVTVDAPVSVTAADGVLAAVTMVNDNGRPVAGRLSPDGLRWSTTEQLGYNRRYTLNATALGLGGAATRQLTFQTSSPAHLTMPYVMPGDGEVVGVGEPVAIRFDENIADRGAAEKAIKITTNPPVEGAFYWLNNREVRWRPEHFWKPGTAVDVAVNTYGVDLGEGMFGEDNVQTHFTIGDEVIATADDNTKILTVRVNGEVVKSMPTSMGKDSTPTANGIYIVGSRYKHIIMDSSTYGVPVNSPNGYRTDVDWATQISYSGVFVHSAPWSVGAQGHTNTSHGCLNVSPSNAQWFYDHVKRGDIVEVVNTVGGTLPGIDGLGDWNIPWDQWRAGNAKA
Nature of the assay: LdtMt2 adduct formation by intact-protein UPLC-HRMS. Type of assay: binding. To be noted: penem 20 μM, 1 h, 25 mM HEPES pH 7.0, 20° C.

The next assay deals with T2, DacB2 (Mycobacterium tuberculosis, UniProt I6Y204).
T2 construct: made in house
T2 sequence (I6Y204 28-291): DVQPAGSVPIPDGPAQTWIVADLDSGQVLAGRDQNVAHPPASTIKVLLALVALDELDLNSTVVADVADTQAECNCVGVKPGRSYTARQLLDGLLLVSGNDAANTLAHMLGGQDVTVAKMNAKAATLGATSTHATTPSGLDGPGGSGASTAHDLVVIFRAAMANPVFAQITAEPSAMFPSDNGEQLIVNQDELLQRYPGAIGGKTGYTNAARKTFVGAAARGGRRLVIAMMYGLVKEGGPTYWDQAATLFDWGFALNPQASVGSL
Nature of the assay: DacB2 adduct formation and stability comparison by intact-protein UPLC-HRMS. To be noted: for DacB2 adduct formation: 20 μM drug, 1 h. Type of assay: binding.

The mark [1] stands for this setting: without clavulanate, Middlebrook 7H9, 37° C., 14 d.
Setting [2] is: ATCC19977, Middlebrook 7H9, 30° C., 72 h.
[3] abbreviates: 24 h after removal of free drug, 20° C.

The term MIC denotes the smallest concentration in the dilution series that meets the test's criterion for growth inhibition. On to `C[C@@H](O)[C@H]1C(=O)N2C(C(=O)O)=C(SC3CN(c4nc5ccccc5n4C)C3)S[C@H]12` [Compound T418, (5R,6S)-6-((R)-1-hydroxyethyl)-3-((1-(1-methyl-1H-benzo[d]imidazol-2-yl)azetidin-3-yl)thio)-7-oxo-4-thia-1-azabicyclo[3.2.0]hept-2-ene-2-carboxylic acid], for which the “increase of MIC relative to T405” value with Mtb H37Rv is “four-fold”. For the same molecule, the MIC was found to be 2 µg/mL in the assay with Mtb H37Rv (setting [1]) and 64 µg/mL (≈ 148 µM) with Mab ATCC 19977 (setting [2]). In addition, in the assay on Mtb H37Rv (Middlebrook 7H9, 37° C., 14 d), the “MIC Mtb H37Rv with Clavulanate (5 μg/ml)” value was 0.5 µg/mL.

With `C[C@@H](O)[C@H]1C(=O)N2C(C(=O)O)=C(SC3CN(C4=NCCCS4)C3)S[C@H]12` [Compound T420, (5R,6S)-3-((1-(5,6-dihydro-4H-1,3-thiazin-2-yl)azetidin-3-yl)thio)-6-((R)-1-hydroxyethyl)-7-oxo-4-thia-1-azabicyclo[3.2.0]hept-2-ene-2-carboxylic acid], the “increase of MIC relative to T405” value in the assay with Mtb H37Rv is “two dilutions”. In addition, the MIC amounted to 2 µg/mL in the assay on Mtb H37Rv (setting [1]) and 16 µg/mL (≈ 39.8 µM) with Mab ATCC 19977 (setting [2]). In the assay with Mtb H37Rv (Middlebrook 7H9, 37° C., 14 d), the “MIC Mtb H37Rv with Clavulanate (5 μg/ml)” value came to 0.5 µg/mL.

Regarding `CCN1CC(SC2=C(C(=O)O)N3C(=O)[C@H]([C@@H](C)O)[C@H]3S2)C1` [Compound T421, (5R,6S)-3-((1-ethylazetidin-3-yl)thio)-6-((R)-1-hydroxyethyl)-7-oxo-4-thia-1-azabicyclo[3.2.0]hept-2-ene-2-carboxylic acid], the results for the MIC in the assay on Mtb H37Rv (setting [1]) and in the assay with Mab ATCC 19977 (setting [2]) were 1 µg/mL and 4 µg/mL (≈ 12.1 µM), respectively. For the same molecule, in the assay with Mtb H37Rv (Middlebrook 7H9, 37° C., 14 d), the “MIC Mtb H37Rv with Clavulanate (5 μg/ml)” value came to 0.5 µg/mL.

With `C[C@@H](O)[C@H]1C(=O)N2C(C(=O)O)=C(SC3CNC3)S[C@H]12` [Compound T422, (5R,6S)-3-(azctidin-3-ylthio)-6-((R)-1-hydroxyethyl)-7-oxo-4-thia-1-azabicyclo[3.2.0]hept-2-ene-2-carboxylic acid], the minimal inhibitory concentration (MIC) was 0.5 µg/mL in the assay with Mtb H37Rv and 4 µg/mL (≈ 13.2 µM) in the assay with Mab ATCC 19977 (ATCC19977, 72 h). The “MIC Mtb H37Rv with Clavulanate (5 μg/ml)” value in the assay on Mtb H37Rv (Middlebrook 7H9, 37° C., 14 d) turned out to be 0.5 µg/mL. For the same molecule, the “weaker activity (MIC) relative to T405” value with Mab ATCC 19977 (Mab ATCC 19977) was 2 fold.

On to `C[C@@H](O)[C@H]1C(=O)N2C(C(=O)O)=C(SC3CN(c4nc5ccccc5s4)C3)S[C@H]12` [Compound T423, (5R,6S)-3-((1-(benzo[d]thiazol-2-yl)azetidin-3-yl)thio)-6-((R)-1-hydroxyethyl)-7-oxo-4-thia-1-azabicyclo[3.2.0]hept-2-ene-2-carboxylic acid], for which the “increase of MIC relative to T405” value with Mtb H37Rv is on record as 16 fold. Also, the MIC amounted to 8 µg/mL in the assay with Mtb H37Rv (setting [1]) and 64 µg/mL (≈ 147 µM) in the assay on Mab ATCC 19977 (setting [2]). The “MIC Mtb H37Rv with Clavulanate (5 μg/ml)” value with Mtb H37Rv (Middlebrook 7H9, 37° C., 14 d) is 2 µg/mL.

For the molecule `C[C@@H](O)[C@H]1C(=O)N2C(C(=O)O)=C(S[C@@H]3CCNC3)S[C@H]12` [Compound T425, (5R,6S)-6-((R)-1-hydroxyethyl)-7-oxo-3-(((R)-pyrrolidin-3-yl)thio)-4-thia-1-azabicyclo[3.2.0]hept-2-ene-2-carboxylic acid], the MIC in the assay on Mtb H37Rv (setting [1]) was determined as 0.5 µg/mL; in the assay with Mab ATCC 19977 (setting [2]) it was 2 µg/mL (≈ 6.32 µM). Further, in the assay on Mtb H37Rv (Middlebrook 7H9, 37° C., 14 d), the “MIC Mtb H37Rv with Clavulanate (5 μg/ml)” value amounted to 0.25 µg/mL. The MIC against Mab in the assay with Mab ATCC 19977 (Mab ATCC 19977) stood at 1 µg/mL (≈ 3.16 µM).

For `C[C@@H](O)[C@H]1C(=O)N2C(C(=O)O)=C(S[C@H]3CCNC3)S[C@H]12` [Compound T426, (5R,6S)-6-((R)-1-hydroxyethyl)-7-oxo-3-(((S)-pyrrolidin-3-yl)thio)-4-thia-1-azabicyclo[3.2.0]hept-2-ene-2-carboxylic acid], the “covalent LdtMt2 adduct formed” value on LdtMt2 was “formed a +86 Da LdtMt2 adduct; also recorded: fragmentation to a M+86 Da 3-hydroxybutyryl group”. For the same molecule, the values for the MIC in the assay on Mtb H37Rv (setting [1]) and with Mab ATCC 19977 (setting [2]) were 0.5 µg/mL and 2 µg/mL (≈ 6.32 µM), respectively. In addition, in the assay with Mtb H37Rv (Middlebrook 7H9, 37° C., 14 d), the “MIC Mtb H37Rv with Clavulanate (5 μg/ml)” value stood at 0.25 µg/mL. This molecule also showed an MIC against Mab in the assay on Mab ATCC 19977 (Mab ATCC 19977) of 1 µg/mL (≈ 3.16 µM). The DacB2 adduct formation entry on DacB2 (20° C., pH 7.0) was “formed intact adducts”. For the same molecule, on DacB2 (setting [3]), the “DacB2 adduct stability (in words)” value is “remained completely bound; also recorded: fully bound; also recorded: stable for at least 24 h after drug removal”.

With `C[C@@H](O)[C@H]1C(=O)N2C(C(=O)O)=C(SC3CCNCC3)S[C@H]12` [Compound T427, (5R,6S)-6-((R)-1-hydroxyethyl)-7-oxo-3-(piperidin-4-ylthio)-4-thia-1-azabicyclo[3.2.0]hept-2-ene-2-carboxylic acid], in the assay on Mtb H37Rv, the “increase of MIC relative to T405” value is on record as “two-fold” and the MIC turned out to be 1 µg/mL. The “MIC Mtb H37Rv with Clavulanate (5 μg/ml)” value in the assay with Mtb H37Rv (Middlebrook 7H9, 37° C., 14 d) was 0.5 µg/mL. In the assay with Mab ATCC 19977 (ATCC19977, 72 h), the MIC stood at 4 µg/mL (≈ 12.1 µM).

Regarding `C[C@@H](O)[C@H]1C(=O)N2C(C(=O)O)=C(SCC3CNC3)S[C@H]12` [Compound T428, (5R,6S)-3-((azetidin-3-ylmethyl)thio)-6-((R)-1-hydroxyethyl)-7-oxo-4-thia-1-azabicyclo[3.2.0]hept-2-ene-2-carboxylic acid], the “covalent LdtMt2 adduct formed” value at LdtMt2 is on record as “formed a +86 Da LdtMt2 adduct; also recorded: fragmentation to a M+86 Da 3-hydroxybutyryl group”. In addition, the MIC is 0.5 µg/mL in the assay on Mtb H37Rv (setting [1]) and 8 µg/mL (≈ 25.3 µM) with Mab ATCC 19977 (setting [2]). For the same molecule, in the assay with Mtb H37Rv (Middlebrook 7H9, 37° C., 14 d), the “MIC Mtb H37Rv with Clavulanate (5 μg/ml)” value was 0.25 µg/mL. In addition, at DacB2 (20° C., pH 7.0), the DacB2 adduct formation result is “formed intact adducts”. Also, the “DacB2 adduct stability (in words)” value on DacB2 (setting [3]) is recorded as “partially hydrolyzed”. The “inhibitor retained on DacB2 (percent bound)” value on DacB2 (24 h after removal of free drug, 20° C., pH 7.0) is listed as 86%. The “loss of drug from DacB2 adduct” value at DacB2 (24 h after washing away free drug) is listed as 14%.

`C[C@@H](O)[C@H]1C(=O)N2C(C(=O)O)=C(SCC3CCNCC3)S[C@H]12` [Compound T429, (5R,6S)-6-((R)-1-hydroxyethyl)-7-oxo-3-((piperidin-4-ylmethyl)thio)-4-thia-1-azabicyclo[3.2.0]hept-2-ene-2-carboxylic acid]: the results for the MIC in the assay on Mtb H37Rv (setting [1]) and with Mab ATCC 19977 (setting [2]) were 0.5 µg/mL and 4 µg/mL (≈ 11.6 µM), respectively. In the assay with Mtb H37Rv (Middlebrook 7H9, 37° C., 14 d), the “MIC Mtb H37Rv with Clavulanate (5 μg/ml)” value came out at 0.25 µg/mL.

In the case of `C[C@@H](O)[C@H]1C(=O)N2C(C(=O)O)=C(SC3CN(C4CCOCC4)C3)S[C@H]12` [Compound T430, (5R,6S)-6-((R)-1-hydroxyethyl)-7-oxo-3-((1-(tetrahydro-2H-pyran-4-yl)azetidin-3-yl)thio)-4-thia-1-azabicyclo[3.2.0]hept-2-ene-2-carboxylic acid], the MIC is 4 µg/mL in the assay with Mtb H37Rv (setting [1]) and 4 µg/mL (≈ 10.3 µM) in the assay with Mab ATCC 19977 (setting [2]).

On to `CCN1CC[C@@H](SC2=C(C(=O)O)N3C(=O)[C@H]([C@@H](C)O)[C@H]3S2)C1` [Compound T431, (5R,6S)-3-(((R)-1-ethylpyrrolidin-3-yl)thio)-6-((R)-1-hydroxyethyl)-7-oxo-4-thia-1-azabicyclo[3.2.0]hept-2-ene-2-carboxylic acid], for which the MIC with Mtb H37Rv (setting [1]) came to 4 µg/mL; with Mab ATCC 19977 (setting [2]), 4 µg/mL (≈ 11.6 µM).

With `C[C@@H](O)[C@H]1C(=O)N2C(C(=O)O)=C(S[C@@H]3CCN(C4CCOCC4)C3)S[C@H]12` [Compound T432, (5R,6S)-6-((R)-1-hydroxyethyl)-7-oxo-3-(((R)-1-(tetrahydro-2H-pyran-4-yl)pyrrolidin-3-yl)thio)-4-thia-1-azabicyclo[3.2.0]hept-2-ene-2-carboxylic acid], the MIC in the assay on Mtb H37Rv (setting [1]) is 4 µg/mL; with Mab ATCC 19977 (setting [2]) it was 4 µg/mL (≈ 9.99 µM).

With `C[C@@H](O)[C@H]1C(=O)N2C(C(=O)O)=C(SCCN=CN)C[C@H]12` [Imipenem, reference compound], the “MIC Mab ATCC 19977” value with Mab ATCC 19977 (Middlebrook 7H9, 30° C., 72 h) was found to be 8 µg/mL (≈ 26.7 µM). Moreover, in the assay with Mab ATCC 19977 (setting [2]), the MIC was determined as 8 µg/mL (≈ 26.7 µM).

On to `C[C@@H](O)[C@H]1C(=O)N2C(C(=O)O)=C(S[C@@H]3CN[C@H](C(=O)N(C)C)C3)[C@H](C)[C@H]12` [Meropenem, reference compound], for which, in the assay with Mtb H37Rv (setting [1]), the MIC came to 8 µg/mL and the “MIC Mtb H37Rv” value is 8 µg/mL. The “MIC Mtb H37Rv with Clavulanate (5 μg/ml)” value in the assay with Mtb H37Rv (Middlebrook 7H9, 37° C., 14 d) is 0.5 µg/mL. The DacB2 adduct formation entry at DacB2 (20° C., pH 7.0) is given as “fully reacts with DacB2”. Also, the “DacB2 adduct stability (in words)” value on DacB2 (setting [3]) is reported as “stable after removal of drug for 24 h”. The “DacB2 adduct stability (in words)” value at DacB2 (24 h after removal of free drug, 20° C., listed as meropenem) was “remained completely bound; also recorded: fully bound”.
